Test results reported in the supplement of paper PMC10733146.

How the values were obtained:
Assay in all cases: viability relative to DMSO control (fraction); higher = less drug effect (more viable cells)
Settings in all cases: 48 h
Roscovitine = compound: CC[C@H](CO)Nc1nc(NCc2ccccc2)c2ncn(C(C)C)c2n1 [Roscovitine]
In short: (§1)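 Compounds were pre-plated at five concentrations, one well each, in 384-well plates, and primary mononuclear tumour cells were plated on them at 4 × 10^4 cells per well. The cells, fresh or cryopreserved, had been Ficoll-isolated from blood or bone marrow or taken from processed lymph node. After 48 h at 37 °C and 5% CO2 in RPMI-1640 with penicillin/streptomycin, L-glutamine and human serum, viability was read as CellTiter-Glo luminescence relative to the median of 16 inner DMSO wells.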

SGC 0946 = compound: CC(C)N(CCCNC(=O)Nc1ccc(C(C)(C)C)cc1)C[C@H]1O[C@@H](n2cc(Br)c3c(N)ncnc32)[C@H](O)[C@@H]1O [SGC 0946]
In short: as §1

Bendamustine = compound: Cn1c(CCCC(=O)O)nc2cc(N(CCCl)CCCl)ccc21 [Bendamustine]
In short: as §1

EPZ-6438 = compound: CCN(c1cc(-c2ccc(CN3CCOCC3)cc2)cc(C(=O)NCc2c(C)cc(C)[nH]c2=O)c1C)C1CCOCC1 [EPZ-6438]
In short: as §1

Midostaurin hydrate = compound: CO[C@@H]1[C@H](N(C)C(=O)c2ccccc2)C[C@H]2O[C@]1(C)n1c3ccccc3c3c4c(c5c6ccccc6n2c5c31)C(=O)NC4 [Midostaurin hydrate]
In short: as §1

Selinexor = compound: O=C(/C=C\n1cnc(-c2cc(C(F)(F)F)cc(C(F)(F)F)c2)n1)NNc1cnccn1 [Selinexor]
In short: as §1

Palbociclib = compound: CC(=O)c1c(C)c2cnc(Nc3ccc(N4CCNCC4)cn3)nc2n(C2CCCC2)c1=O [Palbociclib]
In short: as §1

Barasertib = compound: CCN(CCCOc1ccc2c(Nc3cc(CC(=O)Nc4cccc(F)c4)[nH]n3)ncnc2c1)CCOP(=O)(O)O [Barasertib]
In short: as §1

Everolimus = compound: CO[C@H]1C[C@@H]2CC[C@@H](C)[C@@](O)(O2)C(=O)C(=O)N2CCCC[C@H]2C(=O)O[C@H]([C@H](C)C[C@@H]2CC[C@@H](OCCO)[C@H](OC)C2)CC(=O)[C@H](C)/C=C(\C)[C@@H](O)[C@@H](OC)C(=O)[C@H](C)C[C@H](C)/C=C/C=C/C=C/1C [Everolimus]
In short: as §1

CPI-169 = compound: CCS(=O)(=O)N1CCC([C@@H](C)n2c(C)c(C(=O)NCc3c(OC)cc(C)[nH]c3=O)c3ccccc32)CC1 [CPI-169]
In short: as §1

Tofacitinib = compound: C[C@@H]1CCN(C(=O)CC#N)C[C@@H]1N(C)c1ncnc2[nH]ccc12 [Tofacitinib]
In short: as §1

Etoposide = compound: COc1cc([C@@H]2c3cc4c(cc3[C@@H](O[C@@H]3O[C@@H]5CO[C@@H](C)O[C@H]5[C@H](O)[C@H]3O)[C@H]3COC(=O)[C@H]23)OCO4)cc(OC)c1O [Etoposide]
In short: as §1

Entospletinib = compound: c1cn2cc(-c3ccc4cn[nH]c4c3)nc(Nc3ccc(N4CCOCC4)cc3)c2n1 [Entospletinib]
In short: as §1

primary CLL patient cells (S031)
viability (Roscovitine; 0.032 µM): 0.81
viability (Roscovitine; 0.16 µM): 0.872
viability (Roscovitine; 0.8 µM): 0.921
viability (Roscovitine; 4 µM): 0.734
viability (Roscovitine; 20 µM): 0.455
viability (SGC 0946; 0.024 µM): 0.922
viability (SGC 0946; 0.12 µM): 0.942
viability (SGC 0946; 0.6 µM): 0.848
viability (SGC 0946; 3 µM): 0.793
viability (SGC 0946; 15 µM): 0.355
viability (Bendamustine; 0.032 µM): 1.15
viability (Bendamustine; 0.16 µM): 1.07
viability (Bendamustine; 0.8 µM): 1.1
viability (Bendamustine; 4 µM): 0.991
viability (Bendamustine; 20 µM): 0.392
viability (EPZ-6438; 0.024 µM): 0.927
viability (EPZ-6438; 0.12 µM): 0.931
viability (EPZ-6438; 0.6 µM): 0.939
viability (EPZ-6438; 3 µM): 0.915
viability (EPZ-6438; 15 µM): 0.8
viability (Midostaurin hydrate; 0.024 µM): 1.07
viability (Midostaurin hydrate; 0.12 µM): 1.04
viability (Midostaurin hydrate; 0.6 µM): 0.904
viability (Midostaurin hydrate; 3 µM): 0.452
viability (Midostaurin hydrate; 15 µM): 0.171
viability (Selinexor; 0.008 µM): 0.832
viability (Selinexor; 0.04 µM): 0.762
viability (Selinexor; 0.2 µM): 0.706
viability (Selinexor; 1 µM): 0.561
viability (Selinexor; 5 µM): 0.387
viability (Palbociclib; 0.024 µM): 0.971
viability (Palbociclib; 0.12 µM): 0.805
viability (Palbociclib; 0.6 µM): 0.662
viability (Palbociclib; 3 µM): 0.363
viability (Palbociclib; 15 µM): 0.317
viability (Barasertib; 0.0008 µM): 0.781
viability (Barasertib; 0.004 µM): 0.764
viability (Barasertib; 0.02 µM): 0.85
viability (Barasertib; 0.1 µM): 0.954
viability (Barasertib; 0.5 µM): 0.93
viability (Everolimus; 0.0032 µM): 0.81
viability (Everolimus; 0.016 µM): 0.827
viability (Everolimus; 0.08 µM): 0.808
viability (Everolimus; 0.4 µM): 0.879
viability (Everolimus; 2 µM): 0.894
viability (CPI-169; 0.024 µM): 0.891
viability (CPI-169; 0.12 µM): 0.931
viability (CPI-169; 0.6 µM): 0.925
viability (CPI-169; 3 µM): 0.895
viability (CPI-169; 15 µM): 0.799
viability (Tofacitinib; 0.024 µM): 0.904
viability (Tofacitinib; 0.12 µM): 0.88
viability (Tofacitinib; 0.6 µM): 0.858
viability (Tofacitinib; 3 µM): 0.938
viability (Tofacitinib; 15 µM): 0.791
viability (Etoposide; 0.032 µM): 1.03
viability (Etoposide; 0.16 µM): 0.996
viability (Etoposide; 0.8 µM): 0.858
viability (Etoposide; 4 µM): 0.728
viability (Etoposide; 20 µM): 0.329
viability (Entospletinib; 0.024 µM): 1.09
viability (Entospletinib; 0.12 µM): 0.937
viability (Entospletinib; 0.6 µM): 1.04
viability (Entospletinib; 3 µM): 0.958
viability (Entospletinib; 15 µM): 0.934

primary AML patient cells (S089)
viability (Roscovitine; 0.032 µM): 0.621
viability (Roscovitine; 0.16 µM): 0.991
viability (Roscovitine; 0.8 µM): 0.635
viability (Roscovitine; 4 µM): 1.1
viability (Roscovitine; 20 µM): 0.388
viability (SGC 0946; 0.024 µM): 0.722
viability (SGC 0946; 0.12 µM): 0.985
viability (SGC 0946; 0.6 µM): 0.781
viability (SGC 0946; 3 µM): 0.737
viability (SGC 0946; 15 µM): 0.229
viability (Bendamustine; 0.032 µM): 0.913
viability (Bendamustine; 0.16 µM): 0.995
viability (Bendamustine; 0.8 µM): 1.01
viability (Bendamustine; 4 µM): 1.05
viability (Bendamustine; 20 µM): 0.855
viability (EPZ-6438; 0.024 µM): 0.971
viability (EPZ-6438; 0.12 µM): 1.06
viability (EPZ-6438; 0.6 µM): 1.01
viability (EPZ-6438; 3 µM): 0.964
viability (EPZ-6438; 15 µM): 0.65
viability (Midostaurin hydrate; 0.024 µM): 0.564
viability (Midostaurin hydrate; 0.12 µM): 0.689
viability (Midostaurin hydrate; 0.6 µM): 0.866
viability (Midostaurin hydrate; 3 µM): 0.665
viability (Midostaurin hydrate; 15 µM): 0.504
viability (Selinexor; 0.008 µM): 0.73
viability (Selinexor; 0.04 µM): 0.784
viability (Selinexor; 0.2 µM): 0.559
viability (Selinexor; 1 µM): 0.389
viability (Selinexor; 5 µM): 0.216
viability (Palbociclib; 0.024 µM): 0.794
viability (Palbociclib; 0.12 µM): 0.871
viability (Palbociclib; 0.6 µM): 0.604
viability (Palbociclib; 3 µM): 0.722
viability (Palbociclib; 15 µM): 0.0784
viability (Barasertib; 0.0008 µM): 1.08
viability (Barasertib; 0.004 µM): 1.06
viability (Barasertib; 0.02 µM): 0.725
viability (Barasertib; 0.1 µM): 0.701
viability (Barasertib; 0.5 µM): 0.735
viability (Everolimus; 0.0032 µM): 0.851
viability (Everolimus; 0.016 µM): 0.83
viability (Everolimus; 0.08 µM): 0.849
viability (Everolimus; 0.4 µM): 0.825
viability (Everolimus; 2 µM): 0.715
viability (CPI-169; 0.024 µM): 0.734
viability (CPI-169; 0.12 µM): 0.62
viability (CPI-169; 0.6 µM): 0.674
viability (CPI-169; 3 µM): 0.677
viability (CPI-169; 15 µM): 0.661
viability (Tofacitinib; 0.024 µM): 0.803
viability (Tofacitinib; 0.12 µM): 0.705
viability (Tofacitinib; 0.6 µM): 0.629
viability (Tofacitinib; 3 µM): 0.655
viability (Tofacitinib; 15 µM): 0.516
viability (Etoposide; 0.032 µM): 1.14
viability (Etoposide; 0.16 µM): 0.998
viability (Etoposide; 0.8 µM): 0.998
viability (Etoposide; 4 µM): 0.951
viability (Etoposide; 20 µM): 0.668
viability (Entospletinib; 0.024 µM): 0.776
viability (Entospletinib; 0.12 µM): 0.601
viability (Entospletinib; 0.6 µM): 0.638
viability (Entospletinib; 3 µM): 0.567
viability (Entospletinib; 15 µM): 0.714

primary AML patient cells (S037)
viability (Roscovitine; 0.032 µM): 0.951
viability (Roscovitine; 0.16 µM): 0.908
viability (Roscovitine; 0.8 µM): 0.955
viability (Roscovitine; 4 µM): 0.905
viability (Roscovitine; 20 µM): 0.825
viability (SGC 0946; 0.024 µM): 0.995
viability (SGC 0946; 0.12 µM): 1.2
viability (SGC 0946; 0.6 µM): 0.912
viability (SGC 0946; 3 µM): 1.07
viability (SGC 0946; 15 µM): 0.768
viability (Bendamustine; 0.032 µM): 1
viability (Bendamustine; 0.16 µM): 1
viability (Bendamustine; 0.8 µM): 1.04
viability (Bendamustine; 4 µM): 1.06
viability (Bendamustine; 20 µM): 0.788
viability (EPZ-6438; 0.024 µM): 1.43
viability (EPZ-6438; 0.12 µM): 1.42
viability (EPZ-6438; 0.6 µM): 1.02
viability (EPZ-6438; 3 µM): 1.06
viability (EPZ-6438; 15 µM): 0.96
viability (Midostaurin hydrate; 0.024 µM): 0.995
viability (Midostaurin hydrate; 0.12 µM): 0.985
viability (Midostaurin hydrate; 0.6 µM): 1.13
viability (Midostaurin hydrate; 3 µM): 1.05
viability (Midostaurin hydrate; 15 µM): 0.919
viability (Selinexor; 0.008 µM): 0.931
viability (Selinexor; 0.04 µM): 0.816
viability (Selinexor; 0.2 µM): 0.737
viability (Selinexor; 1 µM): 0.694
viability (Selinexor; 5 µM): 0.576
viability (Palbociclib; 0.024 µM): 1.01
viability (Palbociclib; 0.12 µM): 0.995
viability (Palbociclib; 0.6 µM): 0.934
viability (Palbociclib; 3 µM): 0.909
viability (Palbociclib; 15 µM): 0.574
viability (Barasertib; 0.0008 µM): 0.903
viability (Barasertib; 0.004 µM): 0.856
viability (Barasertib; 0.02 µM): 0.947
viability (Barasertib; 0.1 µM): 0.966
viability (Barasertib; 0.5 µM): 0.977
viability (Everolimus; 0.0032 µM): 0.993
viability (Everolimus; 0.016 µM): 1.47
viability (Everolimus; 0.08 µM): 0.995
viability (Everolimus; 0.4 µM): 1.53
viability (Everolimus; 2 µM): 0.971
viability (CPI-169; 0.024 µM): 0.983
viability (CPI-169; 0.12 µM): 0.948
viability (CPI-169; 0.6 µM): 1.01
viability (CPI-169; 3 µM): 0.938
viability (CPI-169; 15 µM): 0.926
viability (Tofacitinib; 0.024 µM): 0.946
viability (Tofacitinib; 0.12 µM): 0.929
viability (Tofacitinib; 0.6 µM): 0.971
viability (Tofacitinib; 3 µM): 1.01
viability (Tofacitinib; 15 µM): 0.975
viability (Etoposide; 0.032 µM): 1.03
viability (Etoposide; 0.16 µM): 1.35
viability (Etoposide; 0.8 µM): 0.939
viability (Etoposide; 4 µM): 1.05
viability (Etoposide; 20 µM): 0.581
viability (Entospletinib; 0.024 µM): 1.02
viability (Entospletinib; 0.12 µM): 0.982
viability (Entospletinib; 0.6 µM): 1.05
viability (Entospletinib; 3 µM): 1.05
viability (Entospletinib; 15 µM): 1.23
